From patent publication US20120107305A1, “Combination Therapy” (priority 2006, published 2012)

Key:
[1] = system: A431 human tumour xenografts; test: A431 human vulval epidermoid carcinoma xenograft model; format: in vivo, female athymic mice (Swiss nu/nu); conditions: 20 days after randomisation; ZD6474 25 mg/kg/day p.o. once daily, bevacizumab 0.5 mg/kg i.p. twice a week; nude mice
Protocol: Experiments were conducted on female athymic mice (Swiss nu/nu genotype, ≧6 weeks of age). A431 human tumour xenografts were established in the experimental mice by injecting 1×10^7 cells per mouse, mixed in a ratio of 1:1 with Matrigel, subcutaneously in the dorsal flank in a volume of 100 μl. Tumour volumes were assessed at least twice weekly by bilateral Vernier calliper measurements. Mice were randomised into treatment groups when the tumour volume reached 0.2-0.4 cm^3 (day 0, this was after 7 days in Example 1 below).
Tumour growth inhibition from the start of treatment was assessed by comparison of the differences in tumour volume (median and geometric mean) between control and treated groups.
Control animals (Group I) received drug vehicles alone.

[2] = system: tumour models; conditions: once-daily oral administration; range of models; cited from earlier work
[3] = system: VEGF RTK; conditions: cited from earlier work

| Molecule | A431 tumor volume, Geometric mean [1] [cm^3] | Anti-tumour activity [2] | Inhibition of VEGF RTK [3] |
| --- | --- | --- | --- |
| COc1cc2c(Nc3ccc(Br)cc3F)ncnc2cc1OCC1CCN(C)CC1 [ZD6474, 4-(4-bromo-2-fluoroanilino)-6-methoxy-7-(1-methylpiperidin-4-ylmethoxy)quinazoline] | 0.149 | broad-spectrum anti-tumour activity | potent inhibitor |
| Bevacizumab: recombinant humanised monoclonal antibody to the vascular endothelial growth factor ligand VEGF-A | 0.553 | – | – |
